Laboratory results from ChEMBL document CHEMBL5143608, “Peptide-based long-acting co-agonists of GLP-1 and cholecystokinin 1 receptors as novel anti-diabesity agents” (Eur J Med Chem, 2022).
Calls of active or inactive are those of the source. No cut-off for these calls is given here.

How the values were obtained:
[1] = Hepatotoxicity in DIO C57BL/6 mouse assessed as aspartate aminotransferase level in serum at 25 nmol/kg, sc administered every 2 days for 3 weeks; format: toxicity, organism-based; conditions: in vivo, 504 h, time 21 day
[2] = Pancreatic insult activity in db/db mouse assessed as increase in lipase level in serum at 25 nmol/kg, sc administered every 2 days for 12 weeks; format: toxicity, organism-based; conditions: in vivo, 2016 h
[3] = AUC (0 to infinity) in Sprague-Dawley rat at 25 nmol/kg, iv by LC-MS/MS analysis; format: ADME, organism-based; design: time infinity, dose 25 nmol/kg, route iv; conditions: in vivo
[4] = tested on: Mus musculus; assay: Anti-diabesity activity against db/db mouse assessed as enhanced islets insulin content at 25 nmol/kg, sc administered every 2 days for 3 weeks by immunohistochemistry staining; format: functional, organism-based; conditions: time 21.0 day
[5] = tested on: Mus musculus; assay: Anti-diabesity activity against db/db mouse assessed as reduction in HbA1c level at 25 nmol/kg, sc administered every 2 days for 12 weeks; format: functional, organism-based
[6] = tested on: Mus musculus; assay: Anti-diabesity activity in DIO C57BL/6 mouse assessed as reduction in body weight at 100 nmol/kg, sc administered once daily for 7 days; format: functional; conditions: C57BL/6, 168 h, time 7 day
[7] = tested on: Mus musculus; assay: Anorectic activity in ICR mouse assessed as decrease in food intake at 25 nmol/kg, ip and measured after 24 hrs; format: functional, organism-based
[8] = tested on: Mus musculus; assay: Anti-diabesity activity in DIO C57BL/6 mouse assessed as improvement in insulin sensitivity at 25 nmol/kg, sc administered every 2 days for 10 days by insulin tolerance test; format: functional, organism-based; conditions: time 10.0 day
[9] = tested on: Mus musculus; assay: Anti-diabesity activity against db/db mouse assessed as reduction in fasted blood glucose level at 25 nmol/kg, sc administered every 2 days for 3 weeks; format: functional, organism-based; conditions: time 21.0 day
[10] = Renal toxicity in DIO C57BL/6 mouse assessed as creatinine level in serum at 25 nmol/kg, sc administered every 2 days for 3 weeks; format: organism-based; conditions: in vivo, 504 h, time 21 day
[11] = Renal toxicity in DIO C57BL/6 mouse assessed as blood urea nitrogen level at 25 nmol/kg, sc administered every 2 days for 3 weeks; format: organism-based; conditions: in vivo, 504 h, time 21 day
[12] = Pancreatic insult activity in DIO C57BL/6 mouse assessed as lipase level in serum at 25 nmol/kg, sc administered every 2 days for 3 weeks; format: toxicity, organism-based; conditions: in vivo, 504 h, time 21 day
[13] = tested on: Mus musculus; assay: Anti-diabesity activity against DIO C57BL/6 mouse assessed as reduction in cholesterol level in serum at 25 nmol/kg, sc administered every 2 days for 3 weeks; format: functional, organism-based; conditions: time 21.0 day
[14] = Hepatotoxicity in DIO C57BL/6 mouse assessed as aspartate aminotransferase level in plasma at 100 nmol/kg, sc administered once daily for 7 days; format: toxicity, organism-based; conditions: in vivo, 168 h, time 7 day
[15] = tested on: Mus musculus; assay: Hypoglycemic activity in db/db mouse assessed as reduction in glucose excursion at 25 nmol/kg, ip administered 30 min before oral glucose administration and measured upto 120 mins by OGTT; format: functional, organism-based
[16] = Renal toxicity in db/db mouse assessed as blood urea nitrogen level in serum at 25 nmol/kg, sc administered every 2 days for 12 weeks; format: organism-based; conditions: in vivo, 2016 h
[17] = Renal toxicity in db/db mouse assessed as creatinine level in serum at 100 nmol/kg, sc administered once daily for 7 days; format: organism-based; conditions: in vivo, 168 h, time 7 day
[18] = Renal toxicity in db/db mouse assessed as blood urea nitrogen level at 100 nmol/kg, sc administered once daily for 7 days; format: organism-based; conditions: in vivo, 168 h, time 7 day
[19] = tested on: Mus musculus; assay: Anti-diabesity activity against db/db mouse assessed as increase in pancreas mass at 25 nmol/kg, sc administered every 2 days for 12 weeks; format: functional, organism-based
[20] = tested on: Mus musculus; assay: Anti-diabesity activity in DIO C57BL/6 mouse assessed as reduction in body weight at 10 nmol/kg, sc administered every 2 days for 10 days; format: functional; conditions: C57BL/6, 240 h, time 10 day
[21] = Renal toxicity in DIO C57BL/6 mouse assessed as creatinine level in serum at 100 nmol/kg, sc administered once daily for 7 days; format: organism-based; conditions: in vivo, 168 h, time 7 day
[22] = Renal toxicity in db/db mouse assessed as creatinine level in serum at 25 nmol/kg, sc administered every 2 days for 12 weeks; format: organism-based; conditions: in vivo, 2016 h
[23] = Pancreatic insult activity in db/db mouse assessed as increase in amylase level in plasma at 100 nmol/kg, sc administered once daily for 7 days; format: toxicity, organism-based; conditions: in vivo, 168 h, time 7 day
[24] = tested on: Mus musculus; assay: Anti-diabesity activity in DIO C57BL/6 mouse assessed as reduction in body weight at 100 nmol/kg, sc administered every 2 days for 10 days; format: functional; conditions: C57BL/6, 240 h, time 10 day
[25] = Cmax in Sprague-Dawley rat at 25 nmol/kg, iv by LC-MS/MS analysis; format: ADME, organism-based; design: dose 25 nmol/kg, route iv; conditions: in vivo
[26] = tested on: Mus musculus; assay: Anti-diabesity activity against db/db mouse assessed as improvement in glucose tolerance at 25 nmol/kg, sc administered every 2 days for 12 weeks by OGTT; format: functional, organism-based
[27] = tested on: Mus musculus; assay: Anti-diabesity activity against db/db mouse assessed as reduction in body weight at 25 nmol/kg, sc administered every 2 days for 3 weeks; format: functional, organism-based; conditions: time 21.0 day
[28] = tested on: Mus musculus; assay: Anti-diabesity activity against db/db mouse assessed as improvement in glucose tolerance level at 25 nmol/kg, sc administered every 2 days for 6 weeks followed by saline treatment for 6 weeks and measured during first 6 weeks by OGTT; format: functional, organism-based
[29] = tested on: Mus musculus; assay: Anti-diabesity activity against db/db mouse assessed as improvement in glucose tolerance level at 25 nmol/kg, sc administered every 2 days for 6 weeks followed by saline treatment for 6 weeks and measured during second 6 weeks by OGTT; format: functional, organism-based
[30] = Hepatotoxicity in db/db mouse assessed as alanine aminotransferase level in plasma at 25 nmol/kg, sc administered every 2 days for 12 weeks; format: toxicity, organism-based; conditions: in vivo, 2016 h
[31] = tested on: Mus musculus; assay: Anti-diabesity activity against db/db mouse assessed as reduction in fasting blood glucose level at 25 nmol/kg, sc administered every 2 days for 12 weeks; format: functional, organism-based
[32] = tested on: Mus musculus; assay: Anti-diabesity activity against DIO C57BL/6 mouse assessed as reduction in leptin level in plasma at 25 nmol/kg, sc administered every 2 days for 3 weeks by ELISA; format: functional, organism-based; conditions: time 21.0 day
[33] = tested on: Mus musculus; assay: Anti-diabesity activity in DIO C57BL/6 mouse assessed as reduction in body weight at 25 nmol/kg, sc administered every 2 days for 10 days; format: functional; conditions: C57BL/6, 240 h, time 10 day
[34] = MRT in Sprague-Dawley rat at 25 nmol/kg, sc by LC-MS/MS analysis; format: ADME, organism-based; conditions: in vivo
[35] = Pancreatic insult activity in db/db mouse assessed as increase in amylase level in serum at 25 nmol/kg, sc administered every 2 days for 12 weeks; format: toxicity, organism-based; conditions: in vivo, 2016 h
[36] = tested on: Mus musculus; assay: Anti-diabesity activity against DIO C57BL/6 mouse assessed as decrease in fat mass at 25 nmol/kg, sc administered every 2 days for 3 weeks; format: functional, organism-based; conditions: time 21.0 day
[37] = tested on: Mus musculus; assay: Anti-diabesity activity in DIO C57BL/6 mouse assessed as decrease in fasted blood glucose level at 100 nmol/kg, sc administered once daily for 7 days; format: functional, organism-based; conditions: time 7.0 day
[38] = tested on: Mus musculus; assay: Anti-diabesity activity against DIO C57BL/6 mouse assessed as reduction in triglycerides level in serum at 25 nmol/kg, sc administered every 2 days for 3 weeks; format: functional, organism-based; conditions: time 21.0 day
[39] = Pancreatic insult activity in DIO C57BL/6 mouse assessed as increase in lipase level in plasma at 100 nmol/kg, sc administered once daily for 7 days; format: toxicity, organism-based; conditions: in vivo, 168 h, time 7 day
[40] = tested on: Mus musculus; assay: Anti-diabesity activity against db/db mouse assessed as reduction in HbA1c level at 25 nmol/kg, sc administered every 2 days for 6 weeks followed by saline treatment for 6 weeks and measured during first 6 weeks; format: functional, organism-based

For `CCCC[C@H](NC(=O)[C@H](Cc1ccc(CS(=O)(=O)O)cc1)NC(=O)[C@H](CC(=O)O)NC(=O)COCCOCCNC(=O)COCCOCCNC(=O)[C@H](CCCNC(=N)N)NC(=O)CNC(=O)[C@H](CCCCN)NC(=O)[C@@H](NC(=O)[C@H](CC(C)C)NC(=O)[C@H](Cc1c[nH]c2ccccc12)NC(=O)[C@H](C)NC(=O)[C@@H](NC(=O)[C@H](Cc1ccccc1)NC(=O)[C@H](CCC(=O)O)NC(=O)[C@H](CCCCNC(=O)COCCOCCNC(=O)COCCOCCNC(=O)CC[C@H](NC(=O)CCCCCCCCCCCCCCCCC(=O)O)C(=O)O)NC(=O)[C@H](C)NC(=O)[C@H](C)NC(=O)[C@H](CCC(N)=O)NC(=O)CNC(=O)[C@H](CCC(=O)O)NC(=O)[C@H](CC(C)C)NC(=O)[C@H](Cc1ccc(O)cc1)NC(=O)[C@H](CO)NC(=O)[C@H](CO)NC(=O)[C@@H](NC(=O)[C@H](CC(=O)O)NC(=O)[C@H](CO)NC(=O)[C@@H](NC(=O)[C@H](Cc1ccccc1)NC(=O)[C@@H](NC(=O)CNC(=O)[C@H](CCC(=O)O)NC(=O)[C@H](C)NC(=O)[C@@H](N)Cc1cnc[nH]1)[C@@H](C)O)[C@@H](C)O)C(C)C)[C@@H](C)CC)C(C)C)C(=O)NCC(=O)N[C@@H](Cc1c[nH]c2ccccc12)C(=O)N[C@@H](CCCC)C(=O)N(C)[C@H](CC(=O)O)C(=O)N(C)[C@@H](Cc1ccccc1)C(N)=O`, the Activity [1] was “Non-Toxic”, the Activity [2] was “Toxic” and the AUC(0-inf) [3] was 6050 ng·h/mL. For the same compound, the Activity [4] was “Active”, the Activity [5] was “Active” and the inhibition in vivo at 0.1 µmol/kg [6] was 19.2%. The Activity [7] was “Active”, the Activity [8] was “Active” and the Activity [9] was “Active”. The Activity [10] was “Non-Toxic”, the Activity [11] was “Non-Toxic” and the Activity [12] was “Non-Toxic”. For the same compound, the Activity [13] was “Active”, the Activity [14] was “Non-Toxic” and the Activity [15] was “Active”. The Activity [16] was “Non-Toxic”, the Activity [17] was “Non-Toxic” and the Activity [18] was “Non-Toxic”. For the same compound, the Activity [19] was “Active”, the inhibition in vivo at 0.01 µmol/kg [20] was 14.5% and the Activity [21] was “Non-Toxic”. The Activity [22] was “Non-Toxic”, the Activity [23] was “Non-Toxic” and the inhibition in vivo at 0.1 µmol/kg [24] was 27.1%. The Cmax [25] was 1680 ng/mL, the Activity [26] was “Active” and the Activity [27] was “Active”. The Activity [28] was “Active”, the Activity [29] was “Active” and the Activity [30] was “Non-Toxic”. For the same compound, the Activity [31] was “Active”, the Activity [32] was “Active” and the inhibition in vivo at 0.025 µmol/kg [33] was 17.9%. The MRT [34] was 14.7 h, the Activity [35] was “Toxic” and the Activity [36] was “Active”. The Activity [37] was “Active”, the Activity [38] was “Active” and the Activity [39] was “Non-Toxic”. For the same compound, the Activity [40] was “Active”.
